In patent publication US6906193B2, “N-type calcium channel antagonists for the treatment of pain” (AstraZeneca AB, priority 2000, dated 2005):
pIC50: −log10 of the molar value. Where two headings read alike, the source gives them in different places.

Tests used:
N-type calcium channel = N-type calcium channel (Homo sapiens, UniProt Q00975); assay: N-channel FLIPR assay; assay type: cell-based
[1] = system: formalin-induced nocifensive behaviours; assay: Formalin test; assay type: in vivo, rats; conditions: Rattus norvegicus, read-out: IPT (Formalin)
Experimental: The Formalin test assesses the inhibitory effects of orally administered N-type calcium channel antagonists on formalin-induced nocifensive behaviours in rats. The formalin test is a well established pain test (Dubuisson and Dennis, 1977; Wheeler-Aceto et al., 1990; Coderre et al., 1993). This test consists of two distinct phases of formalin-induced behaviour. The first phase response, occurring between 0 to 5 minutes, is caused by acute nociception to the noxious chemical (formalin) injected into the paw. This is followed by a quiescent period of between 5 to 15 min post injection. A second phase response, occurring after 15 minutes and lasting up to 60 minutes, is caused by sensitisation of the central neurons in the dorsal horn. Central sensitisation augments the noxious afferent input and a stronger pain barrage is transmitted into the brain. Inhibition of the second phase response is indicative of a central mechanism of drug action.
The procedure for the formalin test is as follows: male rats are placed in a plexiglass chamber and observed for 30-45 min. to observe their baseline activity. Multiple groups of animals are pretreated with either vehicle or different doses of a test compound. Animals are dosed with the drug of interest either 40 min., if by the intraperitoneal route, or 90 min., if by the oral route, prior to injection of formalin into a hind paw (under the dorsal skin; 0.05 mL of sterile 5% formalin). The number of paw flinches and licks during first phase (0-5 min.) and second phase (20-35 min.) are scored and recorded. Flinch and lick responses are calculated as percentage of inhibition compared with the mean score of a saline control group. Drug potencies are expressed as the dose which causes 50% of the maximum inhibitory effect (“ID50”). Student t-tests are used for statistical analysis to determine the significance of drug effects. Compounds are considered active based on their ability to inhibit the flinch response.

L-type calcium channel = assay: L-channel FLIPR assay; assay type: cell-based, human; conditions: 5-point concentration-response curves; SK-N-SH cells
Experimental: An immortalized cell line, SK-N-SH, derived from human neuroblastoma cells (ATCC product # HTB-11) was used for all experiments. Cells were grown in T75 flasks containing Eagle's minimum essential medium (MEM) w/Earle's salts, with 0.1 mM non-essential amino acids, 1.0 mM Na pyruvate and 10% fetal bovine serum (FBS; Cat. # SLM-034-B, Specialty Media). Cells were grown to 100% confluency (by visual microscopic estimation) before sub-culture. Cells were sub-cultured at a ratio of 1:3 by first rinsing with 3 mL PBS, replacing the PBS with PBS containing 0.25% trypsin until the cells detached from the surface. 1 mL of the resulting suspension was then added to a new flask containing 10 mL fresh media. Cells were then incubated (37° C., 5% CO2), and media was exchanged about 3 days after subculturing.
Cells used for experiments were at the 100% confluency growth stage. Each flask provided enough cells for three 96-well plates. […]
Maximum signal (L-channel+non-specific): 12 wells received 20 μL buffer addition only (no nitrendipine) in the first solution addition sequence to define the maximal K^+-evoked Ca^2+ increase mediated by L-channels+non-specific (non-L-channel mediated fluorescence increase). The coefficient of variation amongst these wells for the K^+-evoked peak increase in fluorescence units was typically less than 12%. […]

pain = conditions: in vivo; cited from earlier work

N-type calcium channel, sequence (Q00975 whole entry): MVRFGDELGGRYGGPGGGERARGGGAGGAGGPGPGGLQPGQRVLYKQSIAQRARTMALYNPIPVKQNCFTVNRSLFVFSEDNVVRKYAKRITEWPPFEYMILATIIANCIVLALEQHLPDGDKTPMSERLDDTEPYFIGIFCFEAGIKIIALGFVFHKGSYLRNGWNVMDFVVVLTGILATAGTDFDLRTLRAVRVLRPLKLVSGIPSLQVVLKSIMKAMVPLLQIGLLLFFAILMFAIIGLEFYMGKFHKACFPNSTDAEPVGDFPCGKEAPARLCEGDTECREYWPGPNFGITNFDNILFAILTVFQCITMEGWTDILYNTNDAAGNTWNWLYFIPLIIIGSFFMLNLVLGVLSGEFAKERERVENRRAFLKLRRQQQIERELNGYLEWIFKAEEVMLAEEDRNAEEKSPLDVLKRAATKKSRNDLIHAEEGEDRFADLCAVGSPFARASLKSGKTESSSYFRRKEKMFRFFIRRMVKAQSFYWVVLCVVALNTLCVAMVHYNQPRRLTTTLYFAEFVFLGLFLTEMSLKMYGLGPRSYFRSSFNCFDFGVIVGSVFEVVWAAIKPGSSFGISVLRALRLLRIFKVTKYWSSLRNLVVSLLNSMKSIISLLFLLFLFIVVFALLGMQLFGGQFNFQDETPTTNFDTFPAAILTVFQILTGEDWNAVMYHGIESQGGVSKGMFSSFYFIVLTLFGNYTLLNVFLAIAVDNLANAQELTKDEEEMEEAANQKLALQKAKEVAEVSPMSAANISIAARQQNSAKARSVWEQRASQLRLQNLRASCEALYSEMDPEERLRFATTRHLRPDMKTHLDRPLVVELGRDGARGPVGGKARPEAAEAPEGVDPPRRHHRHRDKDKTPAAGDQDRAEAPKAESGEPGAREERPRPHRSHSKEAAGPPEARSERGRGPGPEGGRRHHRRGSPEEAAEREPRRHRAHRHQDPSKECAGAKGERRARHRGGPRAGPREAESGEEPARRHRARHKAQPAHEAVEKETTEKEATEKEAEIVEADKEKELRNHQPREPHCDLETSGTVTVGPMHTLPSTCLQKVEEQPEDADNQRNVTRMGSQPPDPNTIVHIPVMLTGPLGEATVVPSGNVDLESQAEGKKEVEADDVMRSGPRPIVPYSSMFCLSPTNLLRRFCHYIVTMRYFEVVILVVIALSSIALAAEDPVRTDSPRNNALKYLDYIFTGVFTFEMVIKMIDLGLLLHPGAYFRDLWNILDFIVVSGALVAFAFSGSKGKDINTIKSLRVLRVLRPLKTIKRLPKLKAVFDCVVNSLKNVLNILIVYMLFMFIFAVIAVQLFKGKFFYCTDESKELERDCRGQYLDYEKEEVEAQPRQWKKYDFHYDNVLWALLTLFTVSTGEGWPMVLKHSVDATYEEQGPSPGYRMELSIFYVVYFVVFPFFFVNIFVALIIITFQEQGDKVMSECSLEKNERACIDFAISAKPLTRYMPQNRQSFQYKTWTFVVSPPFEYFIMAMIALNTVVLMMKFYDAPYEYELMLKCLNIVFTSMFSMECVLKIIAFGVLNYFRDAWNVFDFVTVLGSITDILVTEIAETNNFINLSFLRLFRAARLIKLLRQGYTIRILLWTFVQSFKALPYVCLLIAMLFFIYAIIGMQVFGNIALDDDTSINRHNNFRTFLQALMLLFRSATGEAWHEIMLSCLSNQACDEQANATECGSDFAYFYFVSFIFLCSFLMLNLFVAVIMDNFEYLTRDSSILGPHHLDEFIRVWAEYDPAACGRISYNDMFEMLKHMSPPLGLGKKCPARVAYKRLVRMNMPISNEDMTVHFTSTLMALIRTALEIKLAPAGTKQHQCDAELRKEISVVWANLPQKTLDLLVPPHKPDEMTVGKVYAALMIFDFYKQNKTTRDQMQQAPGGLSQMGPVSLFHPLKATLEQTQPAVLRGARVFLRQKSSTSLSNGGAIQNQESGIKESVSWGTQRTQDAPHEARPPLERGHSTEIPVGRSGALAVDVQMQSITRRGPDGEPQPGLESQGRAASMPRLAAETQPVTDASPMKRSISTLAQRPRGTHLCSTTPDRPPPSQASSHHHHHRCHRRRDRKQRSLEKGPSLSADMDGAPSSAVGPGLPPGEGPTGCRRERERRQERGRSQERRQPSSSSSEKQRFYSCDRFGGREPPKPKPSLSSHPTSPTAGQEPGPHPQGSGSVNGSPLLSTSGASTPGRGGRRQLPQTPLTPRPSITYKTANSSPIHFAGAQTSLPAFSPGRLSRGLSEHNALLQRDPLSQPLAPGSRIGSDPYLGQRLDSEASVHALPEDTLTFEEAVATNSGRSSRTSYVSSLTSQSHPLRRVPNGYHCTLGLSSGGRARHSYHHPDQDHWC
N-type calcium channel, sequence (P54289 25-956 partner limits assumed): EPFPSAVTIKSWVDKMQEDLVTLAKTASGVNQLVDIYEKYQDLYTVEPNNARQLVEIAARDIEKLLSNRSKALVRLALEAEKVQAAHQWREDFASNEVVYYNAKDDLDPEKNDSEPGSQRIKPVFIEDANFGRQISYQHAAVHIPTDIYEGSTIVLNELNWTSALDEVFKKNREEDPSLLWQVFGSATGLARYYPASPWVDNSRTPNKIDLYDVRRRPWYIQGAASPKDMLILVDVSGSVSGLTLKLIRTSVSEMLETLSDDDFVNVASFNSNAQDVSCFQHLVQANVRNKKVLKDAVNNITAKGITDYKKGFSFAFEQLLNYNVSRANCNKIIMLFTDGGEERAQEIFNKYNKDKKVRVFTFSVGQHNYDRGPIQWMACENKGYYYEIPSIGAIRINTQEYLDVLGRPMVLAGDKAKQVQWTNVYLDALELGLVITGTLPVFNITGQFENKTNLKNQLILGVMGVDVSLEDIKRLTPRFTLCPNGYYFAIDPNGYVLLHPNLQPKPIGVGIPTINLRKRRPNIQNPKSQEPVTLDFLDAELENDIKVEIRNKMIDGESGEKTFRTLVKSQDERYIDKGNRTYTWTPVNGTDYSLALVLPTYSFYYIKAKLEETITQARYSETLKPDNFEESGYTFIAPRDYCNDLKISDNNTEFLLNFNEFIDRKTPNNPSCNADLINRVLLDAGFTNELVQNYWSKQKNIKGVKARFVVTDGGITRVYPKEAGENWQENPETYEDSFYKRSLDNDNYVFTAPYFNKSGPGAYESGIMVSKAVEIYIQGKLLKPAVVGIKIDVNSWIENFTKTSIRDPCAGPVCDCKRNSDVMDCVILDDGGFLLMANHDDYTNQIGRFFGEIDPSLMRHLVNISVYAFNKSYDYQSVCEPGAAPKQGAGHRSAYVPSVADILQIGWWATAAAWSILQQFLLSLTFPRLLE
N-type calcium channel, sequence (P54289 957-1103 partner limits assumed): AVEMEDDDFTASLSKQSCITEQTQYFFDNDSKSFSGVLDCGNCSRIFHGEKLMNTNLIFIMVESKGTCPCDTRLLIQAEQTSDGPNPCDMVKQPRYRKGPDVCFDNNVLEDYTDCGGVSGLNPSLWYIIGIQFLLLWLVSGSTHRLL
N-type calcium channel, sequence (Q02641 whole entry partner): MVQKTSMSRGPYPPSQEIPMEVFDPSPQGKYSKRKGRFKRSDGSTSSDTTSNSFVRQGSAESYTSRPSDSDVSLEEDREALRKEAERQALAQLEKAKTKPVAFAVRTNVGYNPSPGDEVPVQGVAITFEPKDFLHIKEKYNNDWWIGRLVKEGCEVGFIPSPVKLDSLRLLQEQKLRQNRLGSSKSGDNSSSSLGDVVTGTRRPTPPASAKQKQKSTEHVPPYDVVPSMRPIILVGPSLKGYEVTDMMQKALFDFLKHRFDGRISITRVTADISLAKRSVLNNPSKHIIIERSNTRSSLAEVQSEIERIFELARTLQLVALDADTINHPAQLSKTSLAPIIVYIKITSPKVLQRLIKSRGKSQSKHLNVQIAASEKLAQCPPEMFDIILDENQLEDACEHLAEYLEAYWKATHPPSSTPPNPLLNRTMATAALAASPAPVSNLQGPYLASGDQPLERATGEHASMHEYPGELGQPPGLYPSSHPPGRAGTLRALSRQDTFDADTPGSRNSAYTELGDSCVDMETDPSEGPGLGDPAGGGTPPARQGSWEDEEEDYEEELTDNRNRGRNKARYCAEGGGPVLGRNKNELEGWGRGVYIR

Compound | pIC50 (N-type calcium channel) | further results
COc1ccc(-c2cc(C(=O)O)c3ccccc3n2)cc1 [Example 1, 2-(4-methoxyphenyl)-4-quinolinecarboxylic acid] | < 5.00 | 
O=C(O)c1cc(-c2ccc(Cl)cc2)nc2ccccc12 [Example 2, 2-(4-chlorophenyl)-4-quinolinecarboxylic acid] | < 5.00 | 
Nc1ccc2nc(-c3ccccc3)cc(N)c2c1 [Example 3, 2-phenyl-4,6-quinolinediamine] | 5.46 | inhibition in vivo at 30 mg/kg ([1]; ip, 30 mg/kg, i.p., rats): 45%; inhibition in vivo at 30 mg/kg ([1]; po, 30 mg/kg, p.o., rats): 28%
COc1cccc2c(C(=O)O)cc(-c3ccccc3)nc12 [Example 4, 8-methoxy-2-phenyl-4-quinolinecarboxylic acid] | < 5.00 | 
COc1ccc(-c2cc(N)c3ccccc3n2)cc1 [Example 5, 2-(4-methoxyphenyl)-4-quinolinamine] | 5.32 | 
Nc1cc(-c2ccccc2)nc2ccccc12 [Example 6, 2-phenyl-4-quinolinamine] | 5.36 | inhibition in vivo at 30 mg/kg ([1]; ip, 30 mg/kg, i.p., rats): 88%
Cc1ccc(-c2cc(C(=O)O)c3ccccc3n2)cc1 [Example 7, 2-(4-methylphenyl)-4-quinolinecarboxylic acid] | < 5.00 | 
O=C(O)c1cc(-c2ccc(F)cc2)nc2ccccc12 [Example 8, 2-(4-fluorophenyl)-4-quinolinecarboxylic acid] | < 5.00 | 
Nc1cc(-c2cccc(F)c2)nc2ccccc12 [Example 9, 2-(3-fluorophenyl)-4-quinolinamine] | 5.68 | inhibition in vivo at 30 mg/kg ([1]; ip, 30 mg/kg, i.p., rats): 90%; inhibition in vivo at 30 mg/kg ([1]; po, 30 mg/kg, p.o., rats): 41%
CNc1cc(-c2cccc(F)c2)nc2ccccc12 [Example 10, 2-(3-fluorophenyl)-N-methyl-4-quinolinamine] | 5.80 | inhibition in vivo at 30 mg/kg ([1]; ip, 30 mg/kg, i.p., rats): 77%; inhibition in vivo at 30 mg/kg ([1]; po, 30 mg/kg, p.o., rats): 46%
CN(C)c1cc(-c2cccc(F)c2)nc2ccccc12 [Example 11, 2-(3-fluorophenyl)-N,N-dimethyl-4-quinolinamine] | 5.52 | inhibition in vivo at 30 mg/kg ([1]; ip, 30 mg/kg, i.p., rats): 64%
CC(=O)Nc1cc(/C=C/c2ccccc2)nc2ccccc12 [Example 12, N-{2-[(E)-2-phenylethenyl]-4-quinolinyl}acetamide] | 5.30 | 
Nc1cc(/C=C/c2ccccc2)nc2ccccc12 [Example 13, 2-[(E)-2-phenylethenyl]-4-quinolinamine] | 5.85 | 
Nc1cc(-c2cccs2)nc2ccccc12 [Example 14, 2-(2-thienyl)-4-quinolinamine] | 5.27 | inhibition in vivo at 30 mg/kg ([1]; ip, 30 mg/kg, i.p., rats): 25%
Cc1c(-c2ccccc2)nc2ccccc2c1C(=O)O [Example 15, 3-methyl-2-phenyl-4-quinolinecarboxylic acid] | < 5.00 | 
Cc1c(-c2ccccc2)nc2ccccc2c1N [Example 16, 3-methyl-2-phenyl-4-quinolinamine] | 5.44 | inhibition in vivo at 30 mg/kg ([1]; ip): 91%; inhibition in vivo at 30 mg/kg ([1]; po): 11%
CC(=O)Nc1cc(/C=C/c2cccc(F)c2)nc2ccccc12 [Example 17, N-{2-[(E)-2-(3-fluorophenyl)ethenyl]-4-quinolinyl}acetamide] | 5.19 | 
Nc1cc(/C=C/c2cccc(F)c2)nc2ccccc12 [Example 18, 2-[(E)-2-(3-fluorophenyl)ethenyl]-4-quinolinamine] | 5.37 | inhibition in vivo at 30 mg/kg ([1]; ip, 30 mg/kg, i.p., rats): 19%
Cc1cc(C)c2c(N)cc(-c3ccccc3)nc2c1 [Example 19, 5,7-dimethyl-2-phenyl-4-quinolinamine] | 5.82 | 
Cc1cccc2c(N)cc(-c3ccccc3)nc12 [Example 20, 8-methyl-2-phenyl-4-quinolinamine] | 5.51 | 

Compound | pIC50 (N-type calcium channel) | further results
COc1ccc2nc(-c3ccccc3)cc(C(=O)O)c2c1 [Example 21, 6-methoxy-2-phenyl-4-quinolinecarboxylic acid] | < 5.00 | 
COc1ccc2nc(-c3ccccc3)cc(N)c2c1 [Example 22, 6-methoxy-2-phenyl-4-quinolinamine] | ~5.52 | inhibition in vivo at 30 mg/kg ([1]; ip, 30 mg/kg, i.p., rats): 16%
CCc1c(-c2ccccc2)nc2ccccc2c1C(=O)O [Example 23, 3-ethyl-2-phenyl-4-quinolinecarboxylic acid] | < 5.00 | 
Nc1ccc2nc(/C=C/c3ccccc3)cc(N)c2c1 [Example 24, 2-[(E)-2-phenylethenyl]-4,6-quinolinediamine] | 5.27 | 
Nc1ccc2nc(/C=C/c3cccc(F)c3)cc(N)c2c1 [Example 25, 2-[(E)-2-(3-fluorophenyl)ethenyl]-4,6-quinolinediamine] | 5.42 | 
COc1cccc2c(N)cc(-c3ccccc3)nc12 [Example 26, 8-methoxy-2-phenyl-4-quinolinamine] | 5.30 | 
Nc1c2c(nc3ccccc13)-c1ccccc1CC2 [Example 27, 5,6-dihydrobenzo[c]acridin-7-amine] | 5.96 | inhibition in vivo at 30 mg/kg ([1]; ip, 30 mg/kg, i.p., rats): 50%
O=C(O)c1cc(-c2ccccc2F)nc2ccccc12 [Example 28, 2-(2-fluorophenyl)-4-quinolinecarboxylic acid] | < 5.00 | 
CCc1c(-c2ccccc2)nc2ccccc2c1N [Example 29, 3-ethyl-2-phenyl-4-quinolinamine] | 5.92 | 
Nc1cc(-c2ccc(F)cc2)nc2ccccc12 [Example 30, 2-(4-fluorophenyl)-4-quinolinamine] | 5.47 | 
Nc1cc(-c2ccccc2F)nc2ccccc12 [Example 31, 2-(2-fluorophenyl)-4-quinolinamine] | 5.10 | 
Cc1ccc(-c2cc(N)c3ccccc3n2)cc1 [Example 32, 2-(4-methylphenyl)-4-quinolinamine] | 5.51 | 
Cc1cccc(-c2cc(C(=O)O)c3ccccc3n2)c1 [Example 33, 2-(3-methylphenyl)-4-quinolinecarboxylic acid] | < 5.00 | 
Nc1c2c(nc3ccccc13)-c1ccccc1CCC2 [Example 34, 6,7-dihydro-5H-benzo[6,7]cyclohepta[1,2-b]quinolin-8-amine] | 6.05 | 
CC(C)(C)c1cc(N)c2ccccc2n1 [Example 35, 2-tert-butyl-4-quinolinamine] | < 5.00 | 
Nc1cc(-c2ccc(Cl)cc2)nc2ccccc12 [Example 36, 2-(4-chlorophenyl)-4-quinolinamine] | 5.26 | 
Cc1cccc(-c2cc(N)c3ccccc3n2)c1 [Example 37, 2-(3-methylphenyl)-4-quinolinamine] | 5.92 | inhibition in vivo at 30 mg/kg ([1]; ip, 30 mg/kg, i.p., rats): 47%; inhibition in vivo at 30 mg/kg ([1]; po, 30 mg/kg, p.o., rats): 13%
CCOC(=O)C1=C(C)NC(C)=C(C(=O)OC)C1c1cccc([N+](=O)[O-])c1 (stereo not shown) [nitrendipine] |  | pIC50 (L-type calcium channel): 7.52
conotoxin MVIIA |  | success rate for the treatment of pain (pain): ~85%
